For 19 molecules, IC50 results are on record in US20210070748A1, “INHIBITORS OF BRUTONS TYROSINE KINASE” (Pharmacyclics LLC, priority 2015, published 2021).

The target in test [1] is T1, JAK3 (Homo sapiens, UniProt P52333).
T1 sequence (P52333 1-1124): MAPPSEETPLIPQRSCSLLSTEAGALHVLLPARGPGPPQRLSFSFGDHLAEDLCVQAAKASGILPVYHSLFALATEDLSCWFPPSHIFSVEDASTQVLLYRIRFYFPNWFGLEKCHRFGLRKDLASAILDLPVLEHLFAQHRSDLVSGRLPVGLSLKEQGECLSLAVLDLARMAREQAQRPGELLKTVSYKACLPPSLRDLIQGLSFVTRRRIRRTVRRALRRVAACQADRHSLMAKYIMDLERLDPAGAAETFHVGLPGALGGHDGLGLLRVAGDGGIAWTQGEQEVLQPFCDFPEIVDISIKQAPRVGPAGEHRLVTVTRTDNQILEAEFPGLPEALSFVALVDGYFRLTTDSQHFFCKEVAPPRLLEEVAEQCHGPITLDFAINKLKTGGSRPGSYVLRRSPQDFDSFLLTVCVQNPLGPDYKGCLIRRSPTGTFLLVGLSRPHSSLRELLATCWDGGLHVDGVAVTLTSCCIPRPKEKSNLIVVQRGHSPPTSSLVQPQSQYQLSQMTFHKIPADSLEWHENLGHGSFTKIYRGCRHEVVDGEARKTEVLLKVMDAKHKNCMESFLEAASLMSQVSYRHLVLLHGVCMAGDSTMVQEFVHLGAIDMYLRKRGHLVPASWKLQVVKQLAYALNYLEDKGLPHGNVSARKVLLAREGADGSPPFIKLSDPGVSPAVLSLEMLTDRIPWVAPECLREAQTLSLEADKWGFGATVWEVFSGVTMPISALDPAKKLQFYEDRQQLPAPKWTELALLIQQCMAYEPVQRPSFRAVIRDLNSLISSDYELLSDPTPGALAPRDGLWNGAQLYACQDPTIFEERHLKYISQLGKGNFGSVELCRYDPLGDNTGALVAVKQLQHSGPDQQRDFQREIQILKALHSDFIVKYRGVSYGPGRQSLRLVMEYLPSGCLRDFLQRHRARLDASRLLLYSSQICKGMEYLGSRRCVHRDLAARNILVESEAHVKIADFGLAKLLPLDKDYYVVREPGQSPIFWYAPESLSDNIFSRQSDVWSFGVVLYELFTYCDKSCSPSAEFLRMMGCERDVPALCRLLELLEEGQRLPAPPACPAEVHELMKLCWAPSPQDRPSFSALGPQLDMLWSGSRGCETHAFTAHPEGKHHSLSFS
The test can be described thus: Inhibition of a panel of kinases, in vitro HotSpot kinase assay: JAK3. The conditions noted are these: D-compounds panel data; 1 μM ATP; read-out: IC50 JAK3. It counts as biochemical.

Test [2] concerns the target EGFR (Homo sapiens, UniProt P00533). The test can be described thus: Inhibition of a panel of kinases, in vitro HotSpot kinase assay: EGFR. The class given is biochemical. As to conditions: D-compounds panel data; 1 μM ATP. How it is done: The degree of inhibition of a panel of kinases is determined using the in vitro HotSpot kinase assay (purified enzymes, ^33P-ATP, an appropriate substrate and 1 μM ATP).

Structures are written as SMILES. Some results are limits rather than exact numbers.

Chain of EGFR (P00533 25-1210): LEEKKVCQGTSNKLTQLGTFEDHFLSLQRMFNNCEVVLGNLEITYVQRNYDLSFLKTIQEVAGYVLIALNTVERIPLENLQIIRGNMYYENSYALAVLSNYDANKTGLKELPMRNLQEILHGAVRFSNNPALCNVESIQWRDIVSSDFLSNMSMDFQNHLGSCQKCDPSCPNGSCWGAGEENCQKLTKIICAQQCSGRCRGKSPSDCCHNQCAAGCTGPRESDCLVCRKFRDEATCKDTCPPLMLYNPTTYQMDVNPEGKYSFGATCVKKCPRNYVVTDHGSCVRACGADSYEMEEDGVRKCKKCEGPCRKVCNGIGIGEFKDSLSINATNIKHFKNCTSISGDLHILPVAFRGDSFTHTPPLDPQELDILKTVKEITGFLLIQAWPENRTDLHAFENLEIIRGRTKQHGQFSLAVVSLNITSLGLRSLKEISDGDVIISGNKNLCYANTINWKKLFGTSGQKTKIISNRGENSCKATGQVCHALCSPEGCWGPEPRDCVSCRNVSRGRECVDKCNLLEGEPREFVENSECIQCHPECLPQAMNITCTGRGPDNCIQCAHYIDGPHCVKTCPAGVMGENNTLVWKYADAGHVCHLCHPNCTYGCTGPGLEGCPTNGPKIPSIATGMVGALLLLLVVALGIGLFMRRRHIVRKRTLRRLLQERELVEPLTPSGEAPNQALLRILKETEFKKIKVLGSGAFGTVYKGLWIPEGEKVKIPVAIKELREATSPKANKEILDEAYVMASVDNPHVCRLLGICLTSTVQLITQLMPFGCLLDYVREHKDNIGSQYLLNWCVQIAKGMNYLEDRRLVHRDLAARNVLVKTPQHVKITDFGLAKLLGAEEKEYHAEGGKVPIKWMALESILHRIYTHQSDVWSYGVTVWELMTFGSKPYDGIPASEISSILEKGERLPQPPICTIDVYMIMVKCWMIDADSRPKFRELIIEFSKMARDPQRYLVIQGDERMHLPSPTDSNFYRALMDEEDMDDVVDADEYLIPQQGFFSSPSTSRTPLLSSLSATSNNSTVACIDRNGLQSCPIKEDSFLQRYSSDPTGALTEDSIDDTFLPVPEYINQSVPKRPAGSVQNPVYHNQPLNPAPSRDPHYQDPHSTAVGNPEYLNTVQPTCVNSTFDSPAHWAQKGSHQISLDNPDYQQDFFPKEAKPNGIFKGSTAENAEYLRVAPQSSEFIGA

As to `C[C@@H]1[C@H](NC(=O)c2ccc(C3CC3)cc2)CCCN1c1cnc(C(N)=O)c(Nc2cnn(C3CCN(CC(F)(F)F)CC3)c2)n1` [Example D-293, 5-[(2R,3R)-3-(4-cyclopropylbenzamido)-2-methylpiperidin-1-yl]-3-({1-[1-(2,2,2-trifluoroethyl)piperidin-4-yl]-1H-pyrazol-4-yl}amino)pyrazine-2-carboxamide], the IC50 (in general, the concentration at which inhibition is half-maximal) was 1000 to 10000 nM in test [1] and greater than 10000 nM in test [2].
The corresponding values for `C[C@@H]1[C@H](NC(=O)c2ccc(C3CC3)cc2)CCCN1c1nnc(C(N)=O)c(Nc2cnn(C)c2)n1` [Example D-277, 3-[(2R,3R)-3-(4-cyclopropylbenzamido)-2-methylpiperidin-1-yl]-5-[(1-methyl-1H-pyrazol-4-yl)amino]-1,2,4-triazine-6-carboxamide] are 100 to 1000 nM and 1000 to 10000 nM.
As to `C[C@@H]1[C@H](NC(=O)c2ccc(C3COC3)cc2)CCCN1c1cnc(C(N)=O)c(Nc2cnn(C)c2)n1` [Example D-23, 3-[(1-methyl-1H-pyrazol-4-yl)amino]-5-[(2R,3R)-2-methyl-3-[4-(oxetan-3-yl)benzamido]piperidin-1-yl]pyrazine-2-carboxamide], the IC50 is 100 to 1000 nM in test [1] and 1000 to 10000 nM in test [2].
As for `C[C@@H]1[C@H](NC(=O)c2ccc(C3CC3)cc2)CCCN1c1cnc(C(N)=O)c(Nc2cnn(C3CCN(C(=O)C4CC4)CC3)c2)n1` [Example D-288, 3-{[1-(1-cyclopropanecarbonylpiperidin-4-yl)-1H-pyrazol-4-yl]amino}-5-[(2R,3R)-3-(4-cyclopropylbenzamido)-2-methylpiperidin-1-yl]pyrazine-2-carboxamide], the concentration for half-maximal inhibition (IC50) in test [1] and in test [2] was 1000 to 10000 nM throughout.
On to `C[C@@H]1[C@H](NC(=O)c2ccc(C3CC3)cc2)CCCN1c1cnc(C(N)=O)c(Nc2cnn(C3CCN(C(=O)C4(C)COC4)CC3)c2)n1` [Example D-289, 5-[(2R,3R)-3-(4-cyclopropylbenzamido)-2-methylpiperidin-1-yl]-3-({1-[1-(3-methyloxetane-3-carbonyl)piperidin-4-yl]-1H-pyrazol-4-yl}amino)pyrazine-2-carboxamide], for which the results for the IC50 in test [1] and in test [2] were 1000 to 10000 nM and 100 to 1000 nM, respectively.
With `Cc1c(Nc2nc(N3CCC[C@@H](NC(=O)c4ccc(C5CC5)cc4)[C@H]3C)cnc2C(N)=O)cnn1C` [Example D-271, 5-[(2R,3R)-3-(4-cyclopropylbenzamido)-2-methylpiperidin-1-yl]-3-[(1,5-dimethyl-1H-pyrazol-4-yl)amino]pyrazine-2-carboxamide], the figures for the IC50 in test [1] and in test [2] were greater than 10000 nM and 1000 to 10000 nM, respectively.
`C[C@@H]1[C@H](NC(=O)c2ccc(C3CC3)cc2)CCCN1c1cnc(C(N)=O)c(Nc2cc(C3CCN(C)CC3)ns2)n1` [Example D-312, 5-[(2R,3R)-3-(4-cyclopropylbenzamido)-2-methylpiperidin-1-yl]-3-{[3-(1-methylpiperidin-4-yl)-1,2-thiazol-5-yl]amino}pyrazine-2-carboxamide]: the IC50 in test [1] and in test [2] was 100 to 1000 nM throughout.
On to `C[C@@H]1[C@H](NC(=O)c2ccc(C3CC3)cc2)CCCN1c1cnc(C(N)=O)c(Nc2cnn(CC#N)c2)n1` [Example D-287, 3-{[1-(cyanomethyl)-1H-pyrazol-4-yl]amino}-5-[(2R,3R)-3-(4-cyclopropylbenzamido)-2-methylpiperidin-1-yl]pyrazine-2-carboxamide], for which the IC50 is 1000 to 10000 nM in test [1] and greater than 10000 nM in test [2].
The matching figures for `C[C@@H]1[C@H](NC(=O)c2ccc(C(C)(C)C)cc2)CCCN1c1nnc(C(N)=O)c(Nc2cnn(C)c2)n1` [Example D-285, 3-[(2R,3R)-3-(4-tert-butylbenzamido)-2-methylpiperidin-1-yl]-5-[(1-methyl-1H-pyrazol-4-yl)amino]-1,2,4-triazine-6-carboxamide]: 100 to 1000 nM and 1000 to 10000 nM.
With `C[C@@H]1[C@H](NC(=O)c2ccc(C3CC3)c(O)c2)CCCN1c1cnc(C(N)=O)c(Nc2cnn(C)c2)n1` [Example D-245, 5-[(2R,3R)-3-(4-cyclopropyl-3-hydroxybenzamido)-2-methylpiperidin-1-yl]-3-[(1-methyl-1H-pyrazol-4-yl)amino]pyrazine-2-carboxamide], the IC50 was in the range of 100 to 1000 nM in test [1] and 1000 to 10000 nM in test [2].
The matching figures for `Cc1cc2cc(C(=O)N[C@@H]3CCCN(c4cnc(C(N)=O)c(Nc5cnn(C)c5)n4)[C@@H]3C)ccc2o1` [Example D-246, 3-[(1-methyl-1H-pyrazol-4-yl)amino]-5-[(2R,3R)-2-methyl-3-(2-methyl-1-benzofuran-5-amido)piperidin-1-yl]pyrazine-2-carboxamide]: 1000 to 10000 nM and 1000 to 10000 nM.
The matching figures for `C[C@@H]1[C@H](NC(=O)c2ccc(C3CC3)cn2)CCCN1c1cnc(C(N)=O)c(Nc2ccc(OC3CCN(C)CC3)cc2)n1` [Example D-297, 5-[(2R,3R)-3-(5-cyclopropylpyridine-2-amido)-2-methylpiperidin-1-yl]-3-({4-[(1-methylpiperidin-4-yl)oxy]phenyl}amino)pyrazine-2-carboxamide]: 100 to 1000 nM and 100 to 1000 nM.
For the molecule `C[C@@H]1[C@H](NC(=O)c2ccc(C3(CO)CC3)cc2)CCCN1c1cnc(C(N)=O)c(Nc2cnn(C)c2)n1` [Example D-260, 5-[(2R,3R)-3-{4-[1-(hydroxymethyl)cyclopropyl]benzamido}-2-methylpiperidin-1-yl]-3-[(1-methyl-1H-pyrazol-4-yl)amino]pyrazine-2-carboxamide], the concentration for half-maximal inhibition (IC50) in test [1] and in test [2] was 1000 to 10000 nM each time.
For `C[C@@H]1[C@H](NC(=O)c2c[nH]c(C3CC3)n2)CCCN1c1cnc(C(N)=O)c(Nc2cnn(C)c2)n1` [Example D-264, 5-[(2R,3R)-3-(2-cyclopropyl-1H-imidazole-4-amido)-2-methylpiperidin-1-yl]-3-[(1-methyl-1H-pyrazol-4-yl)amino]pyrazine-2-carboxamide], the IC50 in test [1] lay within 1000 to 10000 nM; in test [2], 100 to 1000 nM.
The corresponding values for `Cc1nn(C)cc1Nc1nc(N2CCC[C@@H](NC(=O)c3ccc(C4CC4)cc3)[C@H]2C)cnc1C(N)=O` [Example D-272, 5-[(2R,3R)-3-(4-cyclopropylbenzamido)-2-methylpiperidin-1-yl]-3-[(1,3-dimethyl-1H-pyrazol-4-yl)amino]pyrazine-2-carboxamide] are greater than 10000 nM and 1000 to 10000 nM.
For the molecule `C[C@@H]1[C@H](NC(=O)c2ccc(C(C)(C)F)cc2)CCCN1c1cnc(C(N)=O)c(Nc2cnn(C)c2)n1` [Example D-251, 5-[(2R,3R)-3-[4-(2-fluoropropan-2-yl)benzamido]-2-methylpiperidin-1-yl]-3-[(1-methyl-1H-pyrazol-4-yl)amino]pyrazine-2-carboxamide], the half-inhibitory concentration (IC50) in test [1] and in test [2] was 1000 to 10000 nM each time.
Take `C[C@@H]1[C@H](NC(=O)c2ccc(C3CC3)cc2)CCCN1c1cnc(C(N)=O)c(Nc2cnn(C3CCNCC3)c2)n1` [Example D-280, 5-[(2R,3R)-3-(4-cyclopropylbenzamido)-2-methylpiperidin-1-yl]-3-{[1-(piperidin-4-yl)-1H-pyrazol-4-yl]amino}pyrazine-2-carboxamide]: the half-inhibitory concentration (IC50) in test [1] and in test [2] was 1000 to 10000 nM throughout.
For the molecule `C[C@@H]1[C@H](NC(=O)c2ccc(C3CC3)cc2)CCCN1c1cnc(C(N)=O)c(Nc2cc(C3CCN(C4CCCC4)CC3)ns2)n1` [Example D-311, 3-{[3-(1-cyclopentylpiperidin-4-yl)-1,2-thiazol-5-yl]amino}-5-[(2R,3R)-3-(4-cyclopropylbenzamido)-2-methylpiperidin-1-yl]pyrazine-2-carboxamide], the IC50 in test [1] lay in the range of 100 to 1000 nM; in test [2], 1000 to 10000 nM.
In the case of `CC(C)n1nnc2cc(C(=O)N[C@@H]3CCCN(c4cnc(C(N)=O)c(Nc5cnn(C)c5)n4)[C@@H]3C)ccc21` [Example D-255, N-[(2R,3R)-1-{5-carbamoyl-6-[(1-methyl-i H-pyrazol-4-yl)amino]pyrazin-2-yl}-2-methylpiperidin-3-yl]-1-(propan-2-yl)-1H-1,2,3-benzotriazole-5-carboxamide], the IC50 in test [1] fell in the range of 100 to 1000 nM; in test [2] it was 1000 to 10000 nM.
